IC50 data for 1 compound are collected here from paper doi:10.1101/819920v2 (biorxiv, 2020).

In this experiment the target is YegI (Escherichia coli, UniProt Q8X7J8). As to the kind of experiment: biochemical.
YegI, sequence (Q8X7J8 whole entry): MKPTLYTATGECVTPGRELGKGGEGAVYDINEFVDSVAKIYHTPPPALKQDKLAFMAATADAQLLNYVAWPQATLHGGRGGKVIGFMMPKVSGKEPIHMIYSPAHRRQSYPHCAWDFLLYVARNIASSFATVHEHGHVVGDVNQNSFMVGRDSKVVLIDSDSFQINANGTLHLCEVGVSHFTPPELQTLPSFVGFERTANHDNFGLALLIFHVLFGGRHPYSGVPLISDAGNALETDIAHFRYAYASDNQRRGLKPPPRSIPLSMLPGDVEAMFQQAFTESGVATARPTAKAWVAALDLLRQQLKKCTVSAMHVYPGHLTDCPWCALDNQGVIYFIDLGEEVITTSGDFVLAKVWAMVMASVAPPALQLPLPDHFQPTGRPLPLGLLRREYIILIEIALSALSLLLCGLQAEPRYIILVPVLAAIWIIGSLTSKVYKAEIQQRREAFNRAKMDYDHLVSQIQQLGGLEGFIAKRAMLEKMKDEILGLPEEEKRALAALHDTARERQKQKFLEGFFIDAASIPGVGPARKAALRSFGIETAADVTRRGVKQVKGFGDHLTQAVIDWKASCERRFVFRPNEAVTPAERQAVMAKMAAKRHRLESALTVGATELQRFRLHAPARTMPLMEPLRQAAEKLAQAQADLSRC

The compound `CN[C@@H]1C[C@H]2O[C@@](C)([C@@H]1OC)n1c3ccccc3c3c4c(c5c6ccccc6n2c5c31)C(=O)NC4` [staurosporine] showed a half-inhibitory concentration (IC50) of about 50 µM.
